Data taken from patent publication US4053604A (priority 1975, dated 1977).
Values joined by “and” are separate entries in the source; they are usually repeats but may differ in a detail not shown here. Equal entries are not always repeated. “Also recorded” adds a separate entry of the source.

Tests used:
[1] = tail-flick test, analgesic activity of the agent alone; format: in vivo, albino mice
Description: (§1) In the following experiments, phenoperidine and Compound I are used in the form of their hydrochloride salt and droperidol in the form of its free base in the presence of lactic acid for adjustment to pH to 3.4. Results are expressed on the basis of the form of the drug employed (i.e., free base or hydrochloride salt).
(§2) Results of such tests using albino mice are illustrated by tables 1,2 and 3 in which the neuroleptic agent, droperidol, is included for comparative purposes.
*The dose which increased analgesia by 50% when tested 15 minutes after […]

[2] = tail-flick test, potentiation of the analgesic activity of phenoperidine; format: in vivo, albino mice
Description: as §1, §2
Potentiation of the Analgesic Activity (ED50) of Phenoperidine,
i.e. 0.5 mg/kg, by varying Doses of Neuroleptic Agents.
*PD50 refers to the dose of the neuroleptic which increased the
analgesic activity (ED50) of phenoperidine by 50%.
Modified Analgesic Activity of Phenoperidine in
the Presence of the Neuroleptic PD50. -
*ED50 refers to the analgesic activity of phenoperidine after
pretreatment with a fixed dose (PD50) of the neuroleptic agents.

[3] = respiratory minute volume and mean arterial blood pressure in rats; format: in vivo
Procedure: These effects are less than those encountered with neuroleptics presently available for NLA as evidenced by laboratory experiments in rats in which these cardiovascular parameters are measured before and after the administration of Compound 1 and the neuroleptic agent droperidol, see Table 8.
The Effect of Compound 1 and Droperidol on Respiratory Minute Volume
and Mean Arterial Blood Pressure

[4] = behavioral changes and side effects in cebus monkeys; format: in vivo; details: for Behavioral Changes / Side Effects / Duration / Onset / time of onset of side effect (Extrapyramidal): individual monkey
[5] = onset, duration of activity and cardiovascular effect (general statement); format: in vivo
[6] = respiratory minute volume and mean arterial blood pressure in rats; format: in vivo; details: with phenoperidine, intravenously, doses substantially greater than required for NLA; in words
[7] = in words; cited from earlier work

Compound: CC(C)[C@@]1(O)CCN2C[C@@H]3c4ccccc4CCc4cccc(c43)[C@H]2C1 [Compound 1, (+)(4a,13b-trans)-(3-hydroxy,13b-trans)-3-isopropyl-2,- 3,4,4a,8,9,13b,14-octahydro-lH-benzo[6,7]cyclohepta[1,2,3-de]pyrido[2,1-a]isoquinolin-3-ol]
- ED50 ([1]; Mus musculus, ip, 0.25 h, i.p., dose which increased analgesia by 50% when tested 15 minutes after drug administration): > 35 mg/kg
- analgesic activity when given alone ([1]; in words, listed as Compound I): only a negligible amount of analgesic activity; also recorded: no analgesic activity could be demonstrated
- relative potentiating activity, Compound I versus droperidol ([2]; in words): equiactive
- enhancement of analgesic activity of phenoperidine by concomitant administration ([2]; in words, listed as Compound I): well defined potentiating effect on analgesic agents; also recorded: significantly enhanced
- PD50 of Neuroleptic Agent (dose which increased the analgesic activity (ED50) of phenoperidine by 50%) ([2]; mouse, in vivo, ip): 0.56 ± 0.06 mg/kg
- Change in Mean B.P. as % of Control ([3]; 25 μg/kg): -0.83 ± 0.83 % of Control
- Change in Minute Volume as % of Control ([3]; 25 μg/kg): +4.2 ± 1.4 % of Control
- Change in Mean B.P. as % of Control ([3]; 100 μg/kg): -4.1 ± 2.6 % of Control
- Change in Minute Volume as % of Control ([3]; 100 μg/kg): +6.8 ± 1.9 % of Control
- Change in Mean B.P. as % of Control ([3]; 250 μg/kg): -8.9 ± 1.6 % of Control
- Change in Minute Volume as % of Control ([3]; 250 μg/kg): +6.6 ± 2.7 % of Control
- effect on respiratory minute volume ([3]; in words): only a very small increase in minute volume
- effect on mean arterial blood pressure ([3]; upper level of therapeutically effective neuroleptic dosages, in words): minor diminution of blood pressure
- Behavioral Changes ([4]; Compound 1, 5 μg/kg i.v.): None
- Side Effects ([4]; Compound 1, 5 μg/kg i.v.): None
- Behavioral Changes ([4]; Compound 1, 10 μg/kg i.v.): Passive; also recorded: Huddle
- Duration ([4]; Compound 1, 10 μg/kg i.v.): 3 h and > 4 h and 2 h
- Onset ([4]; Compound 1, 10 μg/kg i.v.): 30 min and 20 min and 15 min and 60 min
- Side Effects ([4]; Compound 1, 10 μg/kg i.v.): None
- Behavioral Changes ([4]; Compound 1, 20 μg/kg i.v.): Passive-Huddle
- Duration ([4]; Compound 1, 20 μg/kg i.v.): 4 h and > 5 h and 3 h
- Onset ([4]; Compound 1, 20 μg/kg i.v.): 20 min and 15 min
- Side Effects ([4]; Compound 1, 20 μg/kg i.v.): None
- Behavioral Changes ([4]; Compound 1, 50 μg/kg i.v.): Huddle
- Duration ([4]; Compound 1, 50 μg/kg i.v.): > 4 h
- Onset ([4]; Compound 1, 50 μg/kg i.v.): 20 min and 10 min
- Side Effects ([4]; Compound 1, 50 μg/kg i.v.): Extrapyramidal and None
- time of onset of side effect (Extrapyramidal) ([4]; Compound 1, 50 μg/kg i.v.): 30 min and 40 min
- Behavioral Changes ([4]; Compound 1, 100 μg/kg i.v.): Huddle
- Duration ([4]; Compound 1, 100 μg/kg i.v.): > 24 h
- Onset ([4]; Compound 1, 100 μg/kg i.v.): 10 min and 5 min
- Side Effects ([4]; Compound 1, 100 μg/kg i.v.): Extrapyramidal
- time of onset of side effect (Extrapyramidal) ([4]; Compound 1, 100 μg/kg i.v.): 15 min and 10 min
- doses at which signs of excitomotor agitation (extrapyramidal excitation) were observed ([4]; i.v.): 0.05 to 0.1 mg/kg
- eliciting behavioral changes ([4]; in words): effective in eliciting behavioral changes at very small doses
- effect on the cardiovascular system ([5]; alone or in combination with a suitable analgesic agent, in words): little or no effect on the cardiovascular system
- onset of action ([5]; in words): quick onset of action
- duration of activity ([5]; relatively short duration): up to four
- effect on respiratory depression caused by analgesic agents [6]: only slightly changed
- neuroleptic potency [7]: potent neuroleptic agent
